{
  "source": "patent US20210330575A1",
  "about": "(DONG KOOK PHARM. CO., LTD, priority 2018, published 2021)",
  "system": "nitric oxide (NO) production in LPS-treated RAW264.7 cells",
  "experiment": "Anti-inflammation activity: NO production by Griess reagent",
  "type": "cell-based, mouse",
  "settings": "LPS-induced RAW264.7, 48 hours, FIG. 2",
  "method": "RAW264.7 cells which have been induced to have an inflammation response by LPS in the same manner as above were added to a 96-well plate. […] Then, by using the Griess reagent, the production amount of NO was measured.",
  "data": [
    {"smiles": "COc1ccc2c(c1)c(CC(=O)O)c(C)n2C(=O)c1ccc(Cl)cc1", "note": "[indomethacin]", "values": [
      {"measurement": "NO production (result in words)", "result": "decreased"}
    ]}
  ]
}
